“Also recorded” adds a separate entry of the source.
What was measured:
[1] = Pharmacokinetics and excretion in bile duct-cannulated dog, single IV dose; assay type: in vivo, beagle dogs; details: IV 0.075 mg/kg, up to 48 h, Mean SD
Method: Male bile duct-cannulated beagle dogs or Sprague Dawley rats (n=3) were given a single intravenous (IV) dose of Compound 1. Plasma, urine and bile samples were collected from the dogs, and blood, urine, bile and feces samples were collected from rats up to 48 hours post-dose. Blood samples were kept on wet ice after collection until centrifuged for separation of plasma. Urine samples were collected at intervals 0 to 4, 4 to 8, 8 to 24, and 24 to 48 hours post-dose into collection tubes on wet ice. Bile samples were collected at intervals 0 to 4, 4 to 8, 8 to 24, and 24 to 48 hours post-dose into collection tubes cooled via an ice pack. Feces samples for rats were collected over 0 to 24 hour interval. All samples were transferred into properly labeled tubes and stored at −70° C. until pending shipment to the bioanalytical facility. All samples were analyzed using LC-MS/MS and the pharmacokinetic parameters of Compound 1 were determined with Phoenix WinNonlin using non-compartmental analysis.
Data are shown as Mean SD. NC indicates Not Collected.

[2] = target: T1, OATP1B1 (Homo sapiens, UniProt Q9Y6L6); test: Uptake in HEK293 cells overexpressing OATP1B1; assay type: in vitro ADME
T1 construct: expressed in transfected cells; host or cells: HEK293-FT
T1 sequence (Q9Y6L6 1-691): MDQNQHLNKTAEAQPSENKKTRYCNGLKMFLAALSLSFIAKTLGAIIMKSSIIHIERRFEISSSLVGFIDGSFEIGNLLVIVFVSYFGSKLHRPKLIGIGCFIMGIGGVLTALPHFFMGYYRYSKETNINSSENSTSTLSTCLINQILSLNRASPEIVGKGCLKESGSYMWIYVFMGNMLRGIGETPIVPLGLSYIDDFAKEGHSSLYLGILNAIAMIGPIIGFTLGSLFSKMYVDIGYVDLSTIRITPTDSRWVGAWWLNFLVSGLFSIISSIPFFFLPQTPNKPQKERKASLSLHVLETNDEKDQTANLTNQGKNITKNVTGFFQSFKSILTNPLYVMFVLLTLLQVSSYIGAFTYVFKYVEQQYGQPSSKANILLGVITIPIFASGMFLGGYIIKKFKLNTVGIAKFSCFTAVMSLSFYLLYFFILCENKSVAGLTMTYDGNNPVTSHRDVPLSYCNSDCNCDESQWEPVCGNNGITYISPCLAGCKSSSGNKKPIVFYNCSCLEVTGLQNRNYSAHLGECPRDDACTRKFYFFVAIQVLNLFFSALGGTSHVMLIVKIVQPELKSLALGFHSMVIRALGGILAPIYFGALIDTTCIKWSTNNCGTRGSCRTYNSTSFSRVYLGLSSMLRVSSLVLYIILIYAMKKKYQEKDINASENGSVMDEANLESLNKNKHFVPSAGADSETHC
Method: TransportoCells™ (Corning, N.Y., USA) expressing OATP2B1, NTCP, and HEK293-FT cells stably transfected with the vector containing OATP1B1 cDNA or OATP1B3 cDNA or empty vector were grown in a Dulbecoo's modified Eagle's medium fortified with 10% fetal calf serum and 2 mmol/L sodium butyrate (for NTCP only) in a humidified incubator at 37° C. and 5% CO2. Cells were harvested at 90% confluence and then seeded in poly-D-lysine-coated 24-well 24 h prior to transporter assay. Cells were washed twice and pre-incubated with 200 μL of pre-warmed Krebs-Henseleit buffer. After pre-incubation, cells were incubated with 3 or 10 μmol L-1 of Compound 1 in presence or absence of 100 μmol L-1 of inhibitors (Rifamycin SV for OATP2B1, Troglitazone for NTCP, Rifamycin for OATP1B1 and OATP1B3). The transport reaction was terminated by aspirating the buffer from the wells at designated time. After washing three times with 200 μL of ice-cold Krebs-Henseleit buffer, the cells were lysed and the resulting cellular lysates were analyzed by LC-MS/MS.
Concentration-dependent uptake of Compound 1 via OATP1B1 and OATP1B3 were conducted with a concentration range of 0.25-100 μmol L-1 under linear uptake. All experiments were run in triplicates.

[3] = target: T2, MRP2 (Homo sapiens, UniProt Q92887); test: Transport in MRP2 expressing membrane vesicles; assay type: in vitro ADME
T2 construct: purchased Corning
T2 sequence (Q92887 whole entry): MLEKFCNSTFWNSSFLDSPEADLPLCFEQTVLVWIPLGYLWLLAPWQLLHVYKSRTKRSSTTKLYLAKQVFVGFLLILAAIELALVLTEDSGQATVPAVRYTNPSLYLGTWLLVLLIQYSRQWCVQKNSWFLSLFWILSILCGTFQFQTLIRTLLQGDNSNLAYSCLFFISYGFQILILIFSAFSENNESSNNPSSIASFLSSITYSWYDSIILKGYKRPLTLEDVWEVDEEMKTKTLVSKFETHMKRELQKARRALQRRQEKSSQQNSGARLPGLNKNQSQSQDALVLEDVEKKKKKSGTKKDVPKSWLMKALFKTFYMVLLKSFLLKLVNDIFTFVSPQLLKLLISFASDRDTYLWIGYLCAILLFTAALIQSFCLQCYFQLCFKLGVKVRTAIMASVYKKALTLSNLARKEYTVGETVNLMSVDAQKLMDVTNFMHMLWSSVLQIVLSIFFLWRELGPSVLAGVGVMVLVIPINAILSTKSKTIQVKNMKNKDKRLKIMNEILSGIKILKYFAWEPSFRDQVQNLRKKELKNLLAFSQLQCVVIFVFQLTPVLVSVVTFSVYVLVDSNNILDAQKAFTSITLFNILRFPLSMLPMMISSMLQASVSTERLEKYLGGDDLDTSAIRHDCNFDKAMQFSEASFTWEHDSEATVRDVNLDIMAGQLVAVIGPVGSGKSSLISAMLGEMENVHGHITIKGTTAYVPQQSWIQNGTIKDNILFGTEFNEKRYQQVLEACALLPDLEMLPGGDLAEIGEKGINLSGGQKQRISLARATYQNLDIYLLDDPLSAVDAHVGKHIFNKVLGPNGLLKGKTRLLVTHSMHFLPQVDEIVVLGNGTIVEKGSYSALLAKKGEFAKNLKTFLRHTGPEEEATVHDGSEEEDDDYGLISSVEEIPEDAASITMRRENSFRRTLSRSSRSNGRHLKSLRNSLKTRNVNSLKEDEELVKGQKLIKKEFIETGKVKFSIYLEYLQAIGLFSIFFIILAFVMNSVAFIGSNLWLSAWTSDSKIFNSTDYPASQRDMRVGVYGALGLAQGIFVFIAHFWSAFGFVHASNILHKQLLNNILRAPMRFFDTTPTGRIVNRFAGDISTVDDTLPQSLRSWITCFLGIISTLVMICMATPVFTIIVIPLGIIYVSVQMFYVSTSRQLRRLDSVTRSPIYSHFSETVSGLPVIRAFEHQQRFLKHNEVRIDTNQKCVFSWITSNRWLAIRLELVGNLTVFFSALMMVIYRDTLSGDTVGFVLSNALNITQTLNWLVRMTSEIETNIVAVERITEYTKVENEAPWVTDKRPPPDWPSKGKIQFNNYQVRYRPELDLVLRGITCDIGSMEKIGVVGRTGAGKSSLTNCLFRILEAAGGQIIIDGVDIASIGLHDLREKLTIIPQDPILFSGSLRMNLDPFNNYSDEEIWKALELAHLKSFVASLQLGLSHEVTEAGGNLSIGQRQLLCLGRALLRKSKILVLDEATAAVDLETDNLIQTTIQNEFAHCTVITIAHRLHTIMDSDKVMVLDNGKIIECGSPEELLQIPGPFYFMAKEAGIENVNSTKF
Method: To study the interaction of Compound 1 with hepatic efflux (ABC) transporters, TransportoCells™ membrane vesicles expressing BCRP, BSEP, MRP2, and control vector vesicles were pre-incubation with vesicle uptake buffer (47 mmol L-1 MOPs-Tris, 65 mmol L-1 KCl, 7 mmol L-1 MgCl2, pH 7.4 for BCRP; 47 mmol L-1 MOPs-Tris, 2.5 mmol L-1 GSH, 65 mmol L-1 KCl, 7 mmol L-1 MgCl2, pH 7.4 for MRP2; and 10 mmol L-1 HEPES-Tris, 100 mmol L-1 KNO3, 12.5 mmol L-1 Mg(NO3)2, and 50 mmol L-1 sucrose, pH 7.4 for BSEP) at 37° C. for 10 minutes. The transport was initiated by adding of pre-warmed 25 mmol/L MgATP, 3 μmol L-1 of Compound 1 in presence or absence of inhibitors (3 μmol L-1 of Novobioncin for BCRP, 100 μmol L-1 of MK-571 for MRP2, and 20 μmol L-1 of Ketoconazole for BSEP). The transport was terminated at designated time by adding 200 μL ice-cold vesicle uptake buffer. The complete content was then rapidly filtrated using multi-screen HTS vacuum manifold, followed by 5 washes and filtrations. The plate was allowed to dry completely and then placed onto a 96-well receiver plate. A 50 μL of elute solution (75% methanol containing the internal standard) was added into each assay well followed by centrifugation at 2000 rpm for 5 minutes. […] The yield samples from two centrifugation were combined and analyzed by LC-MS/MS. […]

[4] = system: OATP1B1/1B3; test: Simcyp PBPK modeling of OATP1Bs-mediated drug-drug interaction; set-up: species or system human; details: Simcyp input parameter
Method: PBPK modeling was conducted using the Simcyp™ in silico bottom-up PBPK modeling.
Simcyp™ software Version 17.0.0 was used. Simcyp™ parameters are shown below in Table 3.

Q: What does the source list for O=[P@]1(S)OC[C@H]2O[C@@H]3[C@H](F)[C@@H]2O[P@](=O)(S)OC[C@H]2O[C@H]([C@H](F)[C@@H]2O1)n1cnc2c(ncnc21)NC/C=C/CNc1ncnc2c1ncn23 [Compound 1]?
A: % Ae, bile [1]: 87.9 ± 30.5%; substrate of OATP1B1 ([2]; HEK293 cells overexpressing human OATP1B1): responsible for hepatic uptake; also recorded: substrate; Jmax (pmol/min/million cells), OATP1B1 ([2]; Simcyp input parameter, Table 3): 8.34 pmol/min/million cells; substrate of biliary efflux transporter MRP2 [3]: sequential biliary efflux; also recorded: substrate; CL R [4]: 2.000 L/h

Source: patent publication US12564600B2, “System for enhancing therapeutic compliance of the anti-cancer compound E7766” (Eisai R&D Management Co., Ltd., priority 2019, dated 2026)
